How the values were obtained:
[1] = system: HSTS26T tumors; assay: Vascular density in tumors; conditions: in vivo
[2] = system: 4T1 breast tumors; assay: Solid stress (tumor opening technique); parameters: species or system mice; conditions: mouse, in vivo
Source text: FIG. 25 is a bar graph showing that angiotensin inhibitors decrease stress in multiple tumor models. Solid stress levels in tumors after angiotensin inhibition using losartan are shown. […] Animal numbers n=10-11 (4T1 stress), n=4-8 (Pan-02 stress).
The mechanism responsible for the increase in tumor vessel perfusion by losartan was investigated. Desmoplasia, high stromal cell and matrix density, is a major contributor to the solid stress accumulation that compresses vessels (Stylianopoulos T, et al., Growth-induced mechanical stress in murine and human tumors: causes, consequences and remedies. under review. 2012). […] Moreover, losartan decreased collagen I concentration, measured based on staining intensity, in E0771 and AK4.4 tumors (FIGS. 24B-24C). […] Next, solid stress in these tumors was measured using recently established technique described in Stylianopoulos T, et al., Growth-induced mechanical stress in murine and human tumors: causes, consequences and remedies. under review. […]
Solid stress: Solid stress was measured using the tumor opening technique as described previously (Stylianopoulos T, et al., Growth-induced mechanical stress in murine and human tumors: causes, consequences and remedies. under review. 2012). […] Subsequently, each tumor was excised, washed with Hanks' Balanced Salt Solution (HBSS) and its three dimensions were measured. […]

[3] = system: HSTS26T tumors; assay: Virus treatment and tumor growth delay; format: in vivo, SCID mice
Protocol: (§1) Each arm (control and treated) was subsequently divided into HSV treated and non-HSV treated groups. Tumors that had reached 60 mm^3 after two weeks were selected for i.t. HSV injections. Tumors were treated with 10 μl i.t. injections of either PBS or 2.5×10^5 transducing units (t.u.) of oncolytic HSV MGH2 (gift from E. Antonio Chiocca, Ohio State University, Columbus, Ohio). Two i.t. injections of oncolytic HSV separated by 24 hrs were administered. The injections were done with a Harvard Apparatus Standard Pump 22 infusion/withdraw syringe pump system (Holliston, Mass.) at a flow rate of 4 μl/min. Tumors were measured every 2 to 3 days. Tumor volume was estimated as: V=AB^2/2, where V is the tumor volume; A and B are the maximum and minimum diameters of the tumor as measured with calipers.

[4] = system: Mu89 tumors; assay: Virus treatment and tumor growth delay; format: in vivo, SCID mice
Protocol: as §1

[5] = system: E0771 breast tumors; assay: Vessel perfusion histology (lectin / CD31); format: in vivo, SCID mouse; conditions: 40 mg/kg
[6] = system: E0771 tumors; assay: Tissue oxygenation by phosphorescence quenching microscopy; format: in vivo, mice; conditions: versus control tumors that become more hypoxic with time
Protocol: Oxygenation was then studied using phosphorescence quenching microscopy.
An oxygen-sensitive porphyrin, Oxyphor R2 (Oxygen Enterprises) was injected retro-orbitally 12 hrs prior to imaging, and was reinjected immediately prior to imaging along with 2MDa FITC-dextran (Sigma-Aldrich) for functional vascular tracing. A mosaic image of the tumor was collected, and oxygen was then measured in an evenly spaced 12×12 grid at four depths (60, 120, 180, and 240 μm) in the tumor. At each point in the grid, the phosphorescence lifetime of the probe was measured after each of several repeated brief intense pulses of 1020 nm laser light, and these lifetime measurements were combined. A two-component model was used to calculate the oxygen tension from each lifetime measurement, accounting for binding and quenching of the probe by both oxygen and proteins. The grid was then overlayed on the mosaic images to make an oxygen map.

[7] = Losartan bioanalysis: plasma and tumor levels (HPLC/FLU); conditions: male, FVB, mouse, subcutaneous
[8] = losartan two weeks before i.t. injection of HSV

SMILES: CCCCc1nc(Cl)c(CO)n1Cc1ccc(-c2ccccc2-c2nn[nH]n2)cc1 [losartan]
- tumor growth or vascular density [1]: did not affect
- solid stress [2]: reduces solid stress
- tumor growth rate ([3]; losartan alone): did not affect
- mice whose tumor volume remained stable for up to 9 weeks ([3]; losartan and HSV): 50%
- tumor growth [3, 8]: significantly delayed the growth
- tumor growth rate ([4]; losartan alone): did not affect
- tumor size relative to the starting treatment size ([4]; losartan and HSV, 4 weeks after the virus injection, all tumors): 3 fold
- tumor growth [4, 8]: significantly delayed the growth
- CD31+ vessel density [5]: did not affect
- vessel diameters [5]: increased
- tissue oxygenation [6]: maintains the level of oxygenation
- concentration at 2 h ([7]; plasma, 40 mg/kg, Plasma 2 hr level, Day 14, Group 3: losartan subcutaneous injection without pump 40 mg/kg daily): 423 ng/mL
- concentration at 2 h ([7]; plasma, 40 mg/kg, Plasma 2 hr level, Day 19, Group 3: losartan subcutaneous injection without pump 40 mg/kg daily): 152 ng/mL
- concentration at 6 h ([7]; plasma, 40 mg/kg, Plasma 6 hr level, Day 14, Group 3: losartan subcutaneous injection without pump 40 mg/kg daily): 11 ng/mL
- concentration at 6 h ([7]; plasma, 40 mg/kg, Plasma 6 hr level, Day 19, Group 3: losartan subcutaneous injection without pump 40 mg/kg daily): 28 ng/mL
- concentration at 2 h ([7]; plasma, 40 mg/kg/day, Plasma 2 hr level, Day 14, Group 2: losartan via subcutaneous pump 40 mg/kg/day): 227 ng/mL
- concentration at 2 h ([7]; plasma, 40 mg/kg/day, Plasma 2 hr level, Day 19, Group 2: losartan via subcutaneous pump 40 mg/kg/day): 370 ng/mL
- concentration at 6 h ([7]; plasma, 40 mg/kg/day, Plasma 6 hr level, Day 14, Group 2: losartan via subcutaneous pump 40 mg/kg/day): 304 ng/mL
- concentration at 6 h ([7]; plasma, 40 mg/kg/day, Plasma 6 hr level, Day 19, Group 2: losartan via subcutaneous pump 40 mg/kg/day): 376 ng/mL
- concentration at 2 h ([7]; tumor, 40 mg/kg, Tumor 2 hr level, Day 14, Group 3: losartan subcutaneous injection without pump 40 mg/kg daily): 163 ng/mL
- concentration at 2 h ([7]; tumor, 40 mg/kg, Tumor 2 hr level, Day 19, Group 3: losartan subcutaneous injection without pump 40 mg/kg daily): 41 ng/mL
- concentration at 6 h ([7]; tumor, 40 mg/kg, Tumor 6 hr level, Day 14, Group 3: losartan subcutaneous injection without pump 40 mg/kg daily): 21 ng/mL
- concentration at 6 h ([7]; tumor, 40 mg/kg, Tumor 6 hr level, Day 19, Group 3: losartan subcutaneous injection without pump 40 mg/kg daily): 54 ng/mL
- concentration at 2 h ([7]; tumor, 40 mg/kg/day, Tumor 2 hr level, Day 14, Group 2: losartan via subcutaneous pump 40 mg/kg/day): 50 ng/mL
- concentration at 2 h ([7]; tumor, 40 mg/kg/day, Tumor 2 hr level, Day 19, Group 2: losartan via subcutaneous pump 40 mg/kg/day): 56.1 ng/mL
- concentration at 6 h ([7]; tumor, 40 mg/kg/day, Tumor 6 hr level, Day 14, Group 2: losartan via subcutaneous pump 40 mg/kg/day): 57 ng/mL
- concentration at 6 h ([7]; tumor, 40 mg/kg/day, Tumor 6 hr level, Day 19, Group 2: losartan via subcutaneous pump 40 mg/kg/day): 66 ng/mL

Reference: US20130287688A1, “NOVEL COMPOSITIONS AND USES OF ANTI-HYPERTENSION AGENTS FOR CANCER THERAPY” (XTUIT PHARMACEUTICALS, INC., priority 2010, published 2013)
